Reference: publication PMC6839601, “Discovery of selective, antimetastatic and anti-cancer stem cell metallohelices via post-assembly modification” (Chemical Science, 2019)

Tests used:
A2780cisR (ovarian) = experiment: Antiproliferative activity (MTT assay), A2780cisR; assay type: cell-based, human; conditions: 72 h, mean ± SD, read-out: Cell viability IC50, A2780cisR (ovarian)
Source text: (§1) The human ovarian carcinoma cisplatin-sensitive A2780 cells, cisplatin-resistant A2780cisR (a cisplatin-resistant variant of A2780 cells), human cervical carcinoma HeLa cells, human breast cancer MCF-7 cells and human colorectal carcinoma cells HCT-116 (for experiments performed at the Czech Academy of Sciences) were kindly supplied by Professor B. Keppler, University of Vienna (Austria). Human colon carcinoma cells expressing p53 (HCT116 p53^+/+) were a kind gift of Dr M. Brazdova, Institute of Biophysics, Brno (Czech Republic). […] These solutions were removed, dimethyl sulfoxide was added to each well, and the absorbance at 540 nm was read using a Thermo Scientific Multiskan EX microplate photometer. The IC50 values were determined from a plot of percentage cell survival against drug concentration (in μM). All assays were conducted in triplicate and the mean IC50 ± standard deviation was determined. page 43: 8. […] Cell survival was determined as the absorbance of treated cells minus the blank cell media, divided by the absorbance of the untreated control; this value was expressed as a percentage. The IC50 values were determined from a plot of percentage cell survival against drug concentration (µM). All assays were conducted in triplicate and the mean IC50 ± standard deviation was determined. […]

WI-38 (lung) = experiment: Antiproliferative activity (MTT assay), WI-38; assay type: cell-based; conditions: cells treated for 96 h, mean ± SD, read-out: Cell viability IC50, WI-38 (lung)
Source text: as §1

[1] = system: HCT116 p53+/+ colon cancer cells; experiment: Antiproliferative activity (MTT assay), HCT116 p53+/+; assay type: cell-based, human; conditions: cells treated for 96 h, mean ± SD, read-out: Cell viability IC50, HCT116 p53+/+ (colon)
Source text: as §1

HCT116 p53-/- (colon) = experiment: Antiproliferative activity (MTT assay), HCT116 p53-/-; assay type: cell-based, human
Source text: as §1

[2] = system: ARPE-19 (non-cancerous) cells; experiment: Antiproliferative activity (MTT assay), ARPE-19; assay type: cell-based, human; conditions: cells treated for 96 h, mean ± SD, read-out: Cell viability IC50, ARPE-19 (retinal)
Source text: as §1

HMF (breast) = experiment: Antiproliferative activity (MTT assay), HMF; assay type: cell-based; conditions: cells treated for 96 h, mean ± SD, read-out: Cell viability IC50, HMF (breast)
Source text: as §1

MRC-5 pd30 (lung) = experiment: Antiproliferative activity (MTT assay), MRC-5 pd30; assay type: cell-based, human; conditions: 72 h, mean ± SD, read-out: Cell viability IC50, MRC-5 pd30 (lung)
Source text: as §1

SMILES: N.N.[Cl][Pt][Cl] [Cisplatin, cisplatin]
- IC50 (A2780cisR (ovarian)): 20 ± 3 µM
- IC50 (WI-38 (lung)): 2.2 ± 0.8 µM
- IC50 [1]: 3.3 ± 0.4 µM
- loss of activity towards HCT116 p53-/- cells relative to p53+/+ isogenic clones (HCT116 p53-/- (colon); HCT116 p53-/- vs p53+/+ (Table 1)): > 2 fold
- IC50 (HCT116 p53-/- (colon); MTT, cells treated for 96 h, mean ± SD, read-out: Cell viability IC50, HCT116 p53-/- (colon)): 7.5 ± 0.7 µM
- IC50 [2]: 6.4 ± 1 µM
- IC50 (HMF (breast)): 18 ± 2 µM
- IC50 (MRC-5 pd30 (lung)): 12 ± 1 µM
